Consider two molecules from article PMC3511043, “The multicomponent approach to N-methyl peptides: total synthesis of antibacterial (–)-viridic acid and analogues” (Beilstein Journal of Organic Chemistry, 2012).

Structures are written as SMILES.

A word on the IC50: it is the midpoint of a concentration-inhibition curve.

The assay concerns Aliivibrio fischeri. Nature of the assay: Aliivibrio fischeri assay: inhibition of bacterial luminescence. Type of assay: cell-based. The following applies: inhibition of bacterial luminescence vs untreated bacteria; 96-well plates; concentration series in DMSO/medium (2% v/v); 24 h incubation at 23 °C in the dark; saline BOSS medium (3% NaCl w/w); read-out: IC50 against the Gram-negative bacterium Aliivibrio fischeri. From the text:
To our knowledge no biological screening of pure (−)-viridic acid or its analogues has been performed, and due to the potential of natural peptides and peptoids as antibacterial agents, it was decided to investigate their activity against the Gram-negative bacterium Aliivibrio fischeri. […] Although (−)-viridic acid (1) was isolated thirty years ago, this is the first unambiguous report concerning its biological activity. Based upon the results presented above, it seems that the configuration of the stereogenic center has almost no influence on the antibacterial effect of 1.
The Aliivibrio fischeri assay is based on the measurement of the inhibition of bacterial luminescence against a negative control. Bacteria were pregrown on a saline BOSS medium (3% NaCl w/w) whereby at a certain population density, bacterial luminescence will start. The bacterial suspension was diluted, distributed into 96-well microtiter plates (mtp) and the respective compounds were applied as a concentration series as solutions in DMSO/medium (2% v/v) and mixed. The luminescence of bacteria treated with the respective compounds was measured after 24 h incubation at 23 °C in the dark, in relation to controls of untreated bacteria.
1 Neves Filho, R. A. W.; Stark, S. S.; Morejon, M. C.; Westermann, B.;
3 Malkov, A. V.; Stoncius, S.; Mac Dougall, K. N.; Mariani, A.; McGeoch, G. D.; […]

Take `CC(C)[C@@H](C(=O)Nc1ccccc1C(=O)O)N(C)C(=O)CNC(=O)c1ccccc1N(C)C` [(−)-1, (−)-viridic acid]: the IC50 was 45 ± 4.4 µM. The result for `CC(C)C(C(=O)Nc1ccccc1C(=O)O)N(C)C(=O)CNC(=O)c1ccccc1N(C)C` (racemic) [(±)-1, racemic viridic acid] reads 38.4 ± 5.8 µM.
